Measurements from patent publication US6040331A, “Nerve cell protective agents” (Mochida Pharmaceutical Co., Ltd., priority 1996, dated 2000).
Converted amounts (≈) assume the structure as drawn.

Assays:
[1] = test system: cerebral ischemic animal models; conditions: in vivo; cited from earlier work
[2] = test system: pyramidal cells in the hippocampus CA1 region; assay: Effectiveness in gerbil model of delayed neuronal death (pyramidal cell count, 3 min ischemia); assay type: in vivo; conditions: carotid arteries 5 min before ischemia, ischemic control 58 ± 22, non-ischemic 249 ± 10, mean ± standard error, hydrochloride
Method: (§1) The action of compounds to suppress the death of neurons in vivo was studied by the method of Murase et al., Neurosci. Lett., 149, 229, 1993 which was adapted from the method of Kirino et al., Brain Res., 239, 57, 1982. Specifically, the cervical part of a gerbil under anesthesia by halothane inhalation was incised along the median line to expose the carotid artery on both sides, which were occuluded with clips for 3 min and thereafter brought back to patency. After suturing the incised part, the anesthetization was turned off and the animal was brought back to keeping under normal condition. Seven days after loading of cerebral ischemia, the gerbil was anesthetized by administering pentobarbital, fixed by transcardiac formalin perfusion and had the brain isolated. A coronary slice including the fimbria hippocampi was prepared from the isolated brain and stained with Cresyl Violet. The pyramidal cells in the hippocampus CA1 region were counted under an optical microscope. Each test compound was administered through the carotid arteries 5 min before ischemia.

hippocampus = conditions: Bode et al., cited from earlier work
[3] = test system: pyramidal cells in the hippocampus CA1 region; assay: Effectiveness in gerbil model of delayed neuronal death (damage score, 4 min ischemia); assay type: in vivo; conditions: carotid arteries 5 min before ischemia, score 0-4
Method: as §1, with “Specifically,” for “The action of compounds to suppress the death of neurons in vivo was studied by the method of Murase et al., Neurosci. Lett., 149, 229, 1993 which was adapted from the method of Kirino et al., Brain Res., 239, 57, 1982. Specifically,”, “4” for “3”, “Three” for “Seven”, “examined” for “counted”, “microscope and the degree of damage was rated by the following scores: 0, no damage; 1, slight damage; 2, moderate damage; 3, significant damage; 4, total damage.” for “microscope.”

[4] = test system: neurons isolated from the cerebrum; assay: Naturally occurring neuronal death suppressing action (serum-free cultivation, Crystal Violet); assay type: cell-based, embryonic day 16 rats; conditions: Rattus norvegicus, Neuron, 72 h; 1.0 μg/ml; serum-free, 3 days; read-out: Suppression of Naturally Occurring Neuronal Death
Method: The action of compounds to suppress the naturally occurring death of neurons was evaluated in terms of their effectiveness in suppressing or inhibiting the naturally occurring death of neurons as induced by exposing cultured neurons to serum-free cultivation conditions. An experiment was run by a method adapted from the method of Shimojo et al., Neurosci. Lett., 151, 170, 1993. Specifically, neurons were isolated from the cerebrum of embryonic day 16 rats in the usual manner, suspended in a DMEM/F12 medium containing 1% fetal bovine serum, seeded onto a polylysine-coated culture plate at a density of 5×10^4 cells per square centimeter and cultivated at 37° C. in 95% air+5% CO2. After one day of culture, the medium was replaced with a serum-free medium containing a compound to be tested and the cultivation was continued for 3 more days. Subsequently, the cells were fixed with 1% glutaraldehyde and their number was determined by calorimetric quantification using Crystal Violet (Anal. Biochem., 182, 16-19, 1989). The percent suppression of neuronal death by the test compound was determined by the following formula:
(§2) 100×(ODtest-ODcontrol)/(ODnormal-ODcontrol) (%)
where ODtest is the number of cells (absorbance) in the group of addition of test compound after serum removal, ODcontrol is the number of cells (absorbance) in a control group after serum removal, and ODnormal is the number of cells (absorbance) in a control (normal) group without serum removal.

cerebral infarction = assay: Effectiveness in rat model of permanent occlusion of middle cerebral artery; assay type: in vivo; conditions: 10 mg/kg, tail vein, 10 min after occlusion; 24 h; control 14.7 ± 0.8; mean ± standard error; ** p < 0.01 vs control group
Source text: The therapeutic effect of compounds against cerebral infarction was studied in accordance with the method of Tamura et al., J. Cereb. Blood Flow Metab., 1, 53, 1981.
Specifically, a hole was made transorbitally in part of the cranial bone of a rat under anesthesia by halothane inhalation to expose the origin of the middle cerebral artery. Then, using a bipolar coagulator, the middle cerebral arteries were burnt to coagulate for permanent occlusion. The operative site was sutured and after the anesthetization was turned off, the animal was brought back to keeping under normal condition. Twenty-four hours after loading of cerebral ischemia, the rat was decapitated and the brain was isolated. The isolated brain was cut at a predetermined site to prepare five coronary slices. The infarct area of each section was rendered visible by staining with 2,3,5-triphenyltetrazolium chloride (TTC) and quantitated with an image analyzer. A test compound was administered through the tail vein 10 min after the occlusion of the middle cerebral arteries and comparison was made with a control group administered with a solvent alone.

[5] = test system: neurons isolated from the cerebrum; assay: Veratrine-induced neuronal death suppressing action (MTT); assay type: cell-based, embryonic day 16 rats; conditions: Rattus norvegicus, Neuron; veratrine 0.35 mM; MTT after 24 h; probit method; read-out: IC50 (50% suppression of veratrine-induced neuronal death)
Method: The action of compounds to suppress the death of neurons induced by veratrine was evaluated in terms of their effectiveness in suppressing the neuronal death as induced by direct addition of veratrine. An experiment was run by a method adapted from the method of Powells et al., J. Pharmacol. Exp. Therapeutics, 255, 1117, 1987. Specifically, neurons were isolated from the cerebrum of embryonic day 16 rats in the usual manner, suspended in a MEM medium containing 10% fetal bovine serum, seeded onto a polylysine-coated culture plate at a density of 2.5×10^5 cells per square centimeter and cultivated at 37° C. in 95% air+5% CO2. Starting on the fifth day of cultivation, treatment was conducted with 10 μM of cytosine arabinoside for 2 days and the cultivation was continued until the 12th day, when a test was run as follows. The cells were treated with a buffer solution containing veratrine (0.35 mM) and a test compound, replaced in a serum-containing medium and cultivated for another 24 h. Subsequently, the number of viable cells was determined by calorimetric quantification using 3-(4,5-dimethylthiazol-2-yl)-2,5-diphenyltetrazolium bromide (MTT). The percent suppression of neuronal death by the test compound was determined by the following formula:
as §2
where ODtest is the number of cells (absorbance) in the group of addition of veratrine+test compound, ODcontrol is the number of cells (absorbance) in a control group of addition of veratrine, and ODnormal is the number of cells (absorbance) in a control (normal) group without addition of veratrine.
In addition, IC50 values indicating the effectiveness in achieving 50% suppression of neuronal death were calculated by the probit method on the basis of the result from more than one concentration.

mice (ICR) = assay: Acute toxicity test; assay type: in vivo, mouse; conditions: 100 mg/kg, intraperitoneal, 7-day observation, 3 animals per group
[6] = test system: formalin induced pain reaction; assay: Effectiveness in formalin induced paw pain test; assay type: in vivo, mouse; conditions: for Suppression of pain reaction, Second phase / Suppression of pain reaction, First phase: oral, 30 min before formalin; for Suppression of pain reaction, Second phase: from 10 min to 45 min; for Suppression of pain reaction, First phase: within 10 min after induction
Method: The effectiveness of compounds in a formalin induced pain test was studied in accordance with the method of Shibata et al., Pain, 38, 347, 1989.
Specifically, the left hind paw of a mouse was injected subcutaneously with 25 μl of a 0.5% formalin solution and the duration of time for which the mouse licked and bit the treated foot starting just after the injection was measured with a stopwatch; the measured times were integrated for every 5 minutes and recorded. The formalin induction caused a characteristic biphase pain reaction; the pain recognized within 10 min after the induction was categorized as a first-phase pain reaction and the pain recognized from 10 min to 45 min as a second-phase reaction. The test compounds were administered orally 30 min before the injection of formalin. The percent suppression of the formalin induced pain reaction by each test compound was determined by the following formula:
100×(PRcontrol-PRtest)/(PRcontrol) (%)
where PRtest is the time (sec) of pain reaction in a group administered with both formalin and the test compound and PRcontrol is the time (sec) of pain reaction in a control group subjected to formalin induction.

[7] = 10 mg/kg, ** p < 0.01 vs ischemic control group

SMILES: O=C(O)[C@@H]1C[C@H](CP(=O)(O)O)CCN1 (relative stereo) [selphotel]
- effectiveness in cerebral ischemic animal models (in words) [1]: effective

SMILES: Cl.Fc1ccccc1-c1[nH]c2cccc3c2c1CCC3N1CCOCC1 (single isomer, unassigned; (+)) [Example 247, (+)-2-(2-fluorophenyl)-5-morpholino-1,3,4,5-tetrahydrobenz[cd]indole hydrochloride]
- Pyramidal cell count in hippocampus CA1 ([2]; 2.5 mg/kg): 96 ± 31 cells/mm
- Pyramidal cell count in hippocampus CA1 [2, 7]: 83 ± 35 cells/mm

SMILES: Cl.Fc1ccccc1-c1[nH]c2cccc3c2c1CCC3N1CCOCC1 (single isomer, unassigned; (-)) [Example 248, (-)-2-(2-fluorophenyl)-5-morpholino-1,3,4,5-tetrahydrobenz[cd]indole hydrochloride]
- Pyramidal cell count in hippocampus CA1 ([2]; 2.5 mg/kg): 87 ± 29 cells/mm
- Pyramidal cell count in hippocampus CA1 [2, 7]: 206 ± 14 cells/mm

SMILES: CCCN(CCC)C1Cc2c[nH]c3ccc(OC)c(c23)C1 (stereo not shown) [BAY-R-1531]
- effect on damage to the hippocampus of gerbils after brain ischemia (in words) (hippocampus; Stroke, 21, 1990): effective for damage to the hippocampus of gerbils after brain ischemia
- dose of protective effect relative to dose altering patterns of behavior (in words) (hippocampus; serotonin-like action): the protective effect of the compound was only recognized at a by far higher dose than the one that caused altered patterns of behavior due to a serotonin-like action

SMILES: CN1CCN(c2ncc(-c3cc(Cl)cc(Cl)c3Cl)c(N)n2)CC1 [BW619C89]
- effectiveness in cerebral ischemic animal models (in words) [1]: effective

SMILES: NC1CCc2c(-c3ccccc3)[nH]c3cccc1c23 (stereo not shown) [Example 81, 5-amino-2-phenyl-1,3,4,5-tetrahydrobenz[cd]indole]
- Score of damage to hippocampus CA1 ([3]; 10 mg/kg, ischemic control 2.9 ± 0.3, mean ± standard error (Table 3-1)): 0.1 ± 0.1
- inhibition at 1 µg/mL [4]: 51%
- Weight of infarction (cerebral infarction): 9.3 ± 1.5%
- IC50 [5]: 3.2 µg/mL (≈ 12.9 µM)
- death (acute toxicity) (mice (ICR)): no case of death was found

SMILES: NC1CCc2c(-c3ccccc3)[nH]c3c(Cl)ccc1c23 (stereo not shown) [Example 86, 5-amino-8-chloro-2-phenyl-1,3,4,5-tetrahydrobenz[cd]indole]
- Score of damage to hippocampus CA1 ([3]; 5 mg/kg, ischemic control 2.9 ± 0.3, mean ± standard error (Table 3-1)): 1.8 ± 0.1
- death (acute toxicity) (mice (ICR)): no case of death was found

SMILES: Cl.Fc1ccccc1-c1[nH]c2cccc3c2c1CCC3N1CCOCC1 (stereo not shown) [Example 232, 2-(2-fluorophenyl)-5-morpholino-1,3,4,5-tetrahydrobenz[cd]indole hydrochloride]
- Score of damage to hippocampus CA1 ([3]; 10 mg/kg, ischemic control 3.5 ± 0.4, mean ± standard error (Table 3-2)): 2.5 ± 0.7
- Suppression of pain reaction, Second phase ([6]; 200 mg/kg): 100%
- Suppression of pain reaction, First phase ([6]; 200 mg/kg): 51%

SMILES: Cl.Cn1c(-c2ccccc2)c2c3c(cccc31)C(N1CCOCC1)CC2 (stereo not shown) [Example 237, 1-methyl-5-morpholino-2-phenyl-1,3,4,5-tetrahydrobenz[cd]indole hydrochloride]
- Suppression of pain reaction, Second phase ([6]; 100 mg/kg): 97%
- Suppression of pain reaction, First phase ([6]; 100 mg/kg): 63%

SMILES: O=c1[nH]c2cc(-n3ccnc3)c([N+](=O)[O-])cc2[nH]c1=O [YM90K]
- effectiveness in cerebral ischemic animal models (in words) [1]: effective

SMILES: C[C@]12N[C@H](Cc3ccccc31)c1ccccc12 [dizocilpine]
- effectiveness in cerebral ischemic animal models (in words) [1]: effective

SMILES: Cc1ccc(-c2nc(C)c(CN3CCN(C(c4ccccc4)c4ccccc4)CC3)[nH]2)cc1 [lifarizine]
- effectiveness in cerebral ischemic animal models (in words) [1]: effective

SMILES: CC(C)=CCN1CCC2(C)c3cc(O)ccc3CC1C2C (stereo not shown) [pentazocine, reference compound]
- suppression of the first-phase pain reaction ([6]; 10 mg/kg, subcutaneous): 61%
- suppression of the second-phase pain reaction ([6]; 10 mg/kg, subcutaneous): 40%
